Measured values as given in patent publication US8741961B2 (Cutech S.r.l., priority 2007, dated 2014).

What was measured:
Assay type in all cases: cell-based
[1] = test system: Human anagen hair follicles; test: Growth (elongation) of isolated human hair follicles in organ culture; settings: for Effect on hair growth compared to other MAOI (in words): comparative experiment, Table 4
Experimental: Human anagen hair follicles were isolated from scalp skin and transferred for cultivation in sterile 24-well plates using a modified Williams' Medium E. Cultivation took place for nine days, while the experimental treatment of the follicles started 24 hours after the beginning of cultivation.
Hair follicles taken from a single donor were selected for the experiments after 18 h of cultivation Only follicles showing a good vital stage and a growth of not less than 0.2 mm were considered suitable to be maintained in culture. 4 groups comprising 9 follicles were prepared, plated at the density of three hair follicles/plate. […] The growth of the hair follicles was studied by microphotography and subsequently determined by image analysis. All hair follicles were photographed every two days.

[2] = test system: Human anagen hair follicles; test: Histological analysis of hair follicles (anagen/catagen phase) after 9 days of cultivation; settings: for Hair follicles in anagen phase / Hair follicles in catagen phase: after 9 days of cultivation
Text: Subsequently, the hair follicles were subjected to a histological analysis by colouring with haematossilin and eosin in order to verify the morphological state of the dermopapilla.

[3] = test system: Human anagen hair follicles; test: Number of proliferative (Ki-67) and apoptotic (Apoptag) cells in the dermopapilla of hair follicles; settings: for Number of cells in apoptotic state ± standard error / Number of cells in proliferative state ± standard error: after three days of cultivation, % of total cells in dermopapilla
Experimental: After three days of cultivation, samples were taken in order to determine the relative number of cells being in the proliferative or apoptotic state. The cells in apoptotic state were determined using an Apoptag Fluorescein In-situ Apoptosis Detection Kit (Chemicon International cod. S7110), while those in the proliferative state were marked with the antibody Ki-67 (monoclonal mouse anti-human Ki-67, clone MIB1, Dako Cytomation cod. M7240). The total number of cells in the dermopapilla was analysed by marking their nuclei by means of DAPI (4′,6-diamidino-2-phenylindol dihydrochloride). The percentage of cells in the proliferative or apoptotic state compared to the total number of cells was determined again by image analysis.

[4] = test system: Human anagen hair follicles; test: Growth (elongation) of isolated human hair follicles in organ culture; settings: Table 1
[5] = 0.01 mM, day 1 of cultivation, Table 4 comparative experiment
[6] = 0.01 mM, day 3 of cultivation, Table 4 comparative experiment
[7] = 0.01 mM, day 5 of cultivation, Table 4 comparative experiment
[8] = 0.01 mM, day 7 of cultivation, Table 4 comparative experiment
[9] = 0.01 mM, day 9 of cultivation, Table 4 comparative experiment
[10] = 0.1 mM, day 1 of cultivation, Table 4 comparative experiment
[11] = 0.1 mM, day 3 of cultivation, Table 4 comparative experiment
[12] = 0.1 mM, day 5 of cultivation, Table 4 comparative experiment
[13] = 0.1 mM, day 7 of cultivation, Table 4 comparative experiment
[14] = 0.1 mM, day 9 of cultivation, Table 4 comparative experiment

In the case of C#CCN(C)CCCOc1ccc(Cl)cc1Cl [Chlorgyline], the “Growth of hair follicles - elongation ± standard error” value [1, 5] is reported as 0 mm, the “Growth of hair follicles - elongation ± standard error” value [1, 6] is reported as 0.35 ± 0.02 mm and the “Growth of hair follicles - elongation ± standard error” value [1, 7] is reported as 0.49 ± 0.02 mm. For the same molecule, the “Growth of hair follicles - elongation ± standard error” value [1, 8] was 0.61 ± 0.04 mm, the “Growth of hair follicles - elongation ± standard error” value [1, 9] was 0.72 ± 0.07 mm and the “Growth of hair follicles - elongation ± standard error” value [1, 10] was 0 mm. The “Growth of hair follicles - elongation ± standard error” value [1, 11] was 0.33 ± 0.02 mm, the “Growth of hair follicles - elongation ± standard error” value [1, 12] was 0.55 ± 0.04 mm and the “Growth of hair follicles - elongation ± standard error” value [1, 13] was 0.67 ± 0.05 mm. The “Growth of hair follicles - elongation ± standard error” value [1, 14] was 0.79 ± 0.09 mm and the “Effect on hair growth compared to other MAOI (in words)” value [1] was “did not exert any effect on hair growth”.
C#CCN(C)[C@H](C)Cc1ccccc1 [R-Selegiline] was tested, and the “Growth of hair follicles - elongation ± standard error” value [1, 5] was 0 mm, the “Growth of hair follicles - elongation ± standard error” value [1, 6] was 0.35 ± 0.02 mm and the “Growth of hair follicles - elongation ± standard error” value [1, 7] was 0.52 ± 0.03 mm. The “Growth of hair follicles - elongation ± standard error” value [1, 8] was 0.62 ± 0.05 mm, the “Growth of hair follicles - elongation ± standard error” value [1, 9] was 0.80 ± 0.06 mm and the “Growth of hair follicles - elongation ± standard error” value [1, 10] was 0 mm. For the same molecule, the “Growth of hair follicles - elongation ± standard error” value [1, 11] was 0.34 ± 0.02 mm, the “Growth of hair follicles - elongation ± standard error” value [1, 12] was 0.53 ± 0.04 mm and the “Growth of hair follicles - elongation ± standard error” value [1, 13] was 0.65 ± 0.06 mm. The “Growth of hair follicles - elongation ± standard error” value [1, 14] was 0.82 ± 0.12 mm.
With C#CCN(C)[C@@H](C)Cc1ccccc1 [S-Selegiline] the “Growth of hair follicles - elongation ± standard error” value [1, 5] was 0 mm, the “Growth of hair follicles - elongation ± standard error” value [1, 6] was 0.33 ± 0.02 mm and the “Growth of hair follicles - elongation ± standard error” value [1, 7] was 0.49 ± 0.02 mm. For the same molecule, the “Growth of hair follicles - elongation ± standard error” value [1, 8] was 0.69 ± 0.03 mm, the “Growth of hair follicles - elongation ± standard error” value [1, 9] was 0.84 ± 0.06 mm and the “Growth of hair follicles - elongation ± standard error” value [1, 10] was 0 mm. The “Growth of hair follicles - elongation ± standard error” value [1, 11] was 0.35 ± 0.01 mm, the “Growth of hair follicles - elongation ± standard error” value [1, 12] was 0.55 ± 0.02 mm and the “Growth of hair follicles - elongation ± standard error” value [1, 13] was 0.70 ± 0.03 mm. The “Growth of hair follicles - elongation ± standard error” value [1, 14] was 0.75 ± 0.06 mm.
In the case of Pargyline, the “Growth of hair follicles - elongation ± standard error” value ([1]; 0.01 mM, day 3 of cultivation, Table 1) is reported as 0.51 ± 0.03 mm, the “Growth of hair follicles - elongation ± standard error” value ([1]; 0.01 mM, day 5 of cultivation, Table 1) is reported as 0.80 ± 0.07 mm and the “Growth of hair follicles - elongation ± standard error” value ([1]; 0.01 mM, day 9 of cultivation, Table 1) is reported as 1.47 ± 0.15 mm. For the same molecule, the “Growth of hair follicles - elongation ± standard error” value ([1]; 0.1 mM, day 1 of cultivation, Table 1) was 0 mm, the “Growth of hair follicles - elongation ± standard error” value [1, 10] was 0 mm and the “Growth of hair follicles - elongation ± standard error” value ([1]; 0.1 mM, day 3 of cultivation, Table 1) was 0.55 ± 0.04 mm. For the same molecule, the “Growth of hair follicles - elongation ± standard error” value [1, 11] was 0.56 ± 0.02 mm, the “Growth of hair follicles - elongation ± standard error” value ([1]; 0.1 mM, day 5 of cultivation, Table 1) was 0.91 ± 0.12 mm and the “Growth of hair follicles - elongation ± standard error” value [1, 12] was 0.78 ± 0.04 mm. For the same molecule, the “Growth of hair follicles - elongation ± standard error” value ([1]; 0.1 mM, day 7 of cultivation, Table 1) was 1.19 ± 0.17 mm, the “Growth of hair follicles - elongation ± standard error” value [1, 14] was 1.22 ± 0.08 mm and the “Growth of hair follicles - elongation ± standard error” value ([1]; 0.5 mM, day 3 of cultivation, Table 1) was 0.55 ± 0.05 mm. The “Growth of hair follicles - elongation ± standard error” value ([1]; 0.5 mM, day 5 of cultivation, Table 1) was 0.81 ± 0.11 mm, the “Growth of hair follicles - elongation ± standard error” value ([1]; 0.5 mM, day 9 of cultivation, Table 1) was 1.17 ± 0.19 mm and the “Effect on growth of the hair follicles (in words)” value ([1]; 0.01 to 0.5 mM versus control, Table 1) was “significant increase in growth of the hair follicles”. For the same molecule, the “Effect on hair growth compared to other MAOI (in words)” value [1] was “the only active species”, the “Hair follicles in anagen phase” value ([2]; 0.01 mM) was 78% and the “Hair follicles in catagen phase” value ([2]; 0.01 mM) was 22%. For the same molecule, the “Hair follicles in anagen phase” value ([2]; 0.1 mM) was 67%, the “Hair follicles in catagen phase” value ([2]; 0.1 mM) was 33% and the “Hair follicles in anagen phase” value ([2]; 0.5 mM) was 56%. For the same molecule, the “Hair follicles in catagen phase” value ([2]; 0.5 mM) was 44%, the “Effect on decline in the catagen phase (in words)” value ([2]; 0.01 to 0.5 mM versus control) was “significantly delayed the decline in the catagen phase” and the “Number of cells in apoptotic state ± standard error” value ([3]; 0.01 mM) was 0.93% ± 0.37. For the same molecule, the “Number of cells in proliferative state ± standard error” value ([3]; 0.01 mM) was 1.67% ± 0.4, the “Number of cells in apoptotic state ± standard error” value ([3]; 0.1 mM) was 0.95% ± 0.08 and the “Number of cells in proliferative state ± standard error” value ([3]; 0.1 mM) was 2.89% ± 0.99. The “Effect on number of apoptotic cells (in words)” value ([3]; versus control) was “only a marginal effect in increasing the number of apoptotic cells”, the “Effect on number of cells in proliferative state (in words)” value ([3]; versus control) was “significantly increases the number of cells in an active, proliferative state” and the “Growth of hair follicles - elongation ± standard error” value ([4]; 0.01 mM, day 1 of cultivation) was 0 mm. For the same molecule, the “Growth of hair follicles - elongation ± standard error” value ([4]; 0.1 mM, day 9 of cultivation) was 1.60 ± 0.19 mm and the “Growth of hair follicles - elongation ± standard error” value ([4]; 0.5 mM, day 1 of cultivation) was 0 mm.
